Experimental data from patent US20170253601A1, “Substituted Pyrrolidine Compounds” (EPIZYME, INC., priority 2014, published 2017).

Target: T1, SMYD2 (Homo sapiens, UniProt Q9NRG4)
T1 construct: Full length SMYD2 (NP 064582.2) was cloned; His6 (N, cleaved yes); FLAG (N); made in house; host or cells: Sf9 insect cells
Assay: SMYD2 Biochemical Assay (3H-SAM, biotinylated peptide substrate, Flashplate)
Conditions: Table 1; average of n = 1 to n = 50; read-out: SMYD2 Biochem IC50
Summary of the method: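 Full-length His/FLAG-tagged SMYD2 expressed in Sf9 cells with tag cleaved, 1.5 nM, pre-incubated 30 min at room temperature with compound, then 10 nM 3H-SAM and 60 nM biotinylated peptide added. Buffer 20 mM Bicine pH 7.6, 1 mM TCEP, 0.005% BSG, 0.002% Tween20, 2% DMSO. Stopped with 600 uM cold SAM; 3H-peptide captured on streptavidin Flashplate; IC50 by curve fit.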

T1 sequence (Q9NRG4 whole entry): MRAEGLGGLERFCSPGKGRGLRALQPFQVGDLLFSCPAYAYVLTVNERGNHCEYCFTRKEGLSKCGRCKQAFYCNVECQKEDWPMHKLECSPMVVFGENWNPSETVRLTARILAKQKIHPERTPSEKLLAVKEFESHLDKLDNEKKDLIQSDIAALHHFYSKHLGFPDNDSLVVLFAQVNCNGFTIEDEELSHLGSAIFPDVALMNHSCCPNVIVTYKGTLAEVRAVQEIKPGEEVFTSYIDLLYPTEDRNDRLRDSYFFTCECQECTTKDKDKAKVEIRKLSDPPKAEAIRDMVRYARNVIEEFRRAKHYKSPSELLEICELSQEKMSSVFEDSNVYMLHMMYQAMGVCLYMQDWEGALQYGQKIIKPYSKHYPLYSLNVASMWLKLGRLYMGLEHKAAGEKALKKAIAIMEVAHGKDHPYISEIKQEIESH

Row | Compound | IC50 [µM]
1 | CN1C[C@H](NC(=O)c2cc(C3CC3)on2)[C@H](c2ccccc2)C1 (racemic) [compound 17, (±)-cis-5-cyclopropyl-N-((1-methyl-4-phenylpyrrolidin-3-yl)isoxazole-3-carboxamide] | > 50
2 | C[C@H]1C[C@H](NC(=O)c2cc(C3CC3)on2)C(=O)N1c1cnn(C)c1 (racemic) [compound 20, (±)-trans 5-cyclopropyl-N-(5-methyl-1-(1-methyl-1H-pyrazol-4-yl)-2-oxopyrrolidin-3-yl)isoxazole-3-carboxamide] | > 50
3 | CC(=O)Nc1ccc(S(=O)(=O)N2CC[C@@H](NC(=O)c3cc(C4CC4)on3)C2)cc1 [compound 2, (R)-N-(1-((4-acetamido-phenyl)sulfonyl)pyrrolidin-3-yl)-5-cyclopropyl-isoxazole-3-carboxamide] | > 50
4 | O=C(NC1CCN(C2CC2)C1c1ccc(F)c(F)c1)c1cc(C2CC2)on1 (centres unmarked) [compound 8, 5-cyclopropyl-N-(1-cyclopropyl-2-(3,4-difluoro-phenyl)pyrrolidin-3-yl)isoxazole-3-carboxamide] | > 50
5 | CN1CCC(NC(=O)c2cc(C3CC3)on2)C1c1ccc(F)c(F)c1 (centres unmarked) [compound 9, 5-cyclopropyl-N-(2-(3,4-difluorophenyl)-1-methylpyrrolidin-3-yl)isoxazole-3-carboxamide] | > 50
6 | CC1CC(NC(=O)c2cc(C3CC3)on2)CN1c1ccccc1 (centres unmarked) [compound 10, 5-cyclopropyl-N-(5-methyl-1-phenylpyrrolidin-3-yl)isoxazole-3-carboxamide] | > 50
7 | CC1CC(NC(=O)c2cc(C3CC3)on2)C(=O)N1c1ccccc1 (centres unmarked) [compound 11, 5-cyclopropyl-N-(5-methyl-2-oxo-1-phenylpyrrolidin-3-yl)isoxazole-3-carboxamide] | > 50
8 | CN1C(=O)CC(NC(=O)c2cc(C3CC3)on2)C1c1ccc(F)cc1 (centres unmarked) [compound 14, 5-cyclopropyl-N-(2-(4-fluorophenyl)-1-methyl-5-oxopyrrolidin-3-yl)isoxazole-3-carboxamide] | > 50
9 | Cn1ccc(N2CCC(NC(=O)c3cc(C4CC4)on3)C2=O)n1 (centres unmarked) [compound 15, 5-cyclopropyl-N-(1-(1-methyl-1H-pyrazol-3-yl)-2-oxopyrrolidin-3-yl)isoxazole-3-carboxamide] | > 50
10 | COc1cccc(C2C(NC(=O)c3cc(C4CC4)on3)CCN2C2CC2)c1 (centres unmarked) [compound 16, 5-cyclopropyl-N-(1-cyclopropyl-2-(3-methoxy-phenyl)pyrrolidin-3-yl)isoxazole-3-carboxamide] | > 50
11 | CC(c1ccccc1)N1CCC(NC(=O)c2cc(C3CC3)on2)C1 (centres unmarked) [compound 24, 5-cyclopropyl-N-(1-(1-phenylethyl)pyrrolidin-3-yl)isoxazole-3-carboxamide] | > 50
12 | O=C(NC1CC(=O)N(Cc2ccccc2)C1)c1cc(C2CC2)on1 (centres unmarked) [compound 26, N-(1-benzyl-5-oxopyrrolidin-3-yl)-5-cyclopropylisoxazole-3-carboxamide] | > 50
13 | O=C(NC1CCN(Cc2ccccc2)C1=O)c1cc(C2CC2)on1 (centres unmarked) [compound 27, N-(1-benzyl-2-oxopyrrolidin-3-yl)-5-cyclopropylisoxazole-3-carboxamide] | > 50
14 | O=C(NC1CCN(c2ccccc2)C1=O)c1cc(C2CC2)on1 (centres unmarked) [compound 28, 5-cyclopropyl-N-(2-oxo-1-phenyl-pyrrolidin-3-yl)isoxazole-3-carboxamide] | > 50
15 | CN1CCC(NC(=O)c2cc(C3CC3)on2)C1 (centres unmarked) [compound 29, 5-cyclopropyl-N-(1-methylpyrrolidin-3-yl)isoxazole-3-carboxamide] | > 50
16 | NCCCC(=O)N1CC[C@@H](NC(=O)c2cc(C3CC3)on2)C1 [compound 30, (R)-N-(1-(4-amino-butanoyl)pyrrolidin-3-yl)-5-cyclopropyl-isoxazole-3-carboxamide] | > 50
17 | N[C@H]1CC[C@H](C(=O)N2CC[C@@H](NC(=O)c3cc(C4CC4)on3)C2)CC1 [compound 31, N-((R)-1-((1r,4r)-4-aminocyclohexane-1-carbonyl)pyrrolidin-3-yl)-5-cyclopropyl-isoxazole-3-carboxamide] | > 50
18 | NCCCC(=O)N1CC[C@H](NC(=O)c2cc(C3CC3)on2)C1 [compound 32, (S)-N-(1-(4-amino-butanoyl)pyrrolidin-3-yl)-5-cyclopropyl-isoxazole-3-carboxamide] | > 50
19 | N[C@H]1CC[C@H](C(=O)N2CC[C@H](NC(=O)c3cc(C4CC4)on3)C2)CC1 [compound 33, N-((S)-1-((1r,4s)-4-aminocyclohexane-1-carbonyl)pyrrolidin-3-yl)-5-cyclopropyl-isoxazole-3-carboxamide] | > 50
20 | NCCCS(=O)(=O)N1CC[C@@H](NC(=O)c2cc(C3CC3)on2)C1 [compound 34, (R)-N-(1-((3-amino-propyl)sulfonyl)pyrrolidin-3-yl)-5-cyclopropyl-isoxazole-3-carboxamide] | > 50
21 | NCCCS(=O)(=O)N1CC[C@H](NC(=O)c2cc(C3CC3)on2)C1 [compound 35, (S)-N-(1-((3-amino-propyl)sulfonyl)pyrrolidin-3-yl)-5-cyclopropyl-isoxazole-3-carboxamide] | > 50

More lines, now with the values ahead:

Row | IC50 [µM] | Compound
22 | > 50 | CN1C[C@H](NC(=O)c2cc(C3CC3)on2)[C@@H](c2ccccc2)C1 (racemic) [compound 18, (±)-trans-5-cyclopropyl-N-(1-methyl-4-phenylpyrrolidin-3-yl)isoxazole-3-carboxamide]
23 | > 50 | C[C@@H]1C[C@H](NC(=O)c2cc(C3CC3)on2)C(=O)N1c1cnn(C)c1 (racemic) [compound 19, (±)-cis-5-cyclopropyl-N-(5-methyl-1-(1-methyl-1H-pyrazol-4-yl)-2-oxopyrrolidin-3-yl)isoxazole-3-carboxamide]
24 | > 50 | CC(=O)Nc1ccc(S(=O)(=O)N2CC[C@H](NC(=O)c3cc(C4CC4)on3)C2)cc1 [compound 1, (S)-N-(1-((4-acetamido-phenyl)sulfonyl)pyrrolidin-3-yl)-5-cyclopropyl-isoxazole-3-carboxamide]
25 | 48.6 | O=C(N[C@H]1CCNC1)c1cc(C2CC2)on1 [compound 3, (S)-5-cyclopropyl-N-(pyrrolidin-3-yl)isoxazole-3-carboxamide]
26 | > 50 | O=C(N[C@@H]1CCNC1)c1cc(C2CC2)on1 [compound 4, (R)-5-cyclopropyl-N-(pyrrolidin-3-yl)isoxazole-3-carboxamide]
27 | > 50 | CN1CCC(NC(=O)c2cc(C3CC3)on2)C1c1ccccc1 (centres unmarked) [compound 5, 5-cyclopropyl-N-(1-methyl-2-phenyl-pyrrolidin-3-yl)isoxazole-3-carboxamide]
28 | > 50 | Cc1cc(N2CCC(NC(=O)c3cc(C4CC4)on3)C2=O)n(C)n1 (centres unmarked) [compound 6, 5-cyclopropyl-N-(1-(1,3-dimethyl-1H-pyrazol-5-yl)-2-oxopyrrolidin-3-yl)isoxazole-3-carboxamide]
29 | > 50 | CN1CCC(NC(=O)c2cc(C3CC3)on2)C1c1ccc(Cl)c(F)c1 (centres unmarked) [compound 7, N-(2-(4-chloro-3-fluorophenyl)-1-methylpyrrolidin-3-yl)-5-cyclo-propylisoxazole-3-carboxamide]
30 | > 50 | CC(C)N1CCC(NC(=O)c2cc(C3CC3)on2)C1c1ccc(F)c(F)c1 (centres unmarked) [compound 12, 5-cyclopropyl-N-(2-(3,4-difluorophenyl)-1-isopropylpyrrolidin-3-yl)isoxazole-3-carboxamide]
31 | > 50 | CN1CCC(NC(=O)c2cc(C3CC3)on2)C1c1ccc(F)cc1 (centres unmarked) [compound 13, 5-cyclopropyl-N-(2-(4-fluorophenyl)-1-methylpyrrolidin-3-yl)isoxazole-3-carboxamide]
32 | 44.5 | CC1CC(NC(=O)c2cc(C3CC3)on2)CN1Cc1ccccc1 (centres unmarked) [compound 21, N-(1-benzyl-5-methylpyrrolidin-3-yl)-5-cyclopropyl-isoxazole-3-carboxamide]
33 | > 50 | CC1CC(NC(=O)c2cc(C3CC3)on2)CN1C1CC1 (centres unmarked) [compound 22, 5-cyclopropyl-N-(1-cyclopropyl-5-methylpyrrolidin-3-yl)isoxazole-3-carboxamide]
34 | 5.18 | CC1CN(C2CC2)CC1NC(=O)c1cc(C2CC2)on1 (centres unmarked) [compound 23, 5-cyclopropyl-N-(1-cyclopropyl-4-methylpyrrolidin-3-yl)isoxazole-3-carboxamide]
35 | > 50 | O=C(NC1CC(=O)N(c2ccccc2)C1)c1cc(C2CC2)on1 (centres unmarked) [compound 25, 5-cyclopropyl-N-(5-oxo-1-phenylpyrrolidin-3-yl)isoxazole-3-carboxamide]
